{"source": "EPA's ToxRefDB 2", "key": {"[1]": {"system": "rat", "details": "Subchronic oral toxicity in rodents, fischer, Feed, dose end: 90 day, group: systemic"}, "[2]": {"system": "rat", "details": "Prenatal developmental toxicity study, sprague dawley, Oral, Gavage/Intubation, dose end: 15 GD"}, "[3]": {"system": "mouse", "details": "Carcinogenicity, cd1, Oral, Feed, dose end: 78 week, group: systemic"}, "[4]": {"system": "dog", "details": "Subchronic oral toxicity in nonrodent, beagle, Capsule, dose end: 93 day, group: systemic"}, "[5]": {"system": "dog", "details": "Chronic toxicity; beagle; Oral; Capsule; dose end: 52 week; group: systemic; systemic / in life observation / clinical signs / defecation (diarrhea) + systemic / in life observation / clinical signs / vomitting + …"}, "[6]": {"system": "rat", "details": "Combined chronic toxicity/carcinogenicity, fischer, Oral, Feed, dose end: 104 week, group: systemic"}, "[7]": {"system": "mouse", "details": "Subchronic oral toxicity in rodents, b6c3f1, Feed, dose end: 13 week, group: systemic"}, "[8]": {"system": "mouse", "details": "Subchronic oral toxicity in rodents, Feed, dose end: 13 week, group: systemic, systemic / in life observation / body weight / body weight"}, "[9]": {"system": "mouse", "details": "Combined chronic toxicity/carcinogenicity, b6c3f1, Oral, Feed, dose end: 24 month, group: systemic"}, "[10]": {"system": "rat", "details": "Combined chronic toxicity/carcinogenicity, sprague dawley, Oral, Feed, dose end: 2 year, group: systemic"}, "[11]": {"system": "rat", "details": "Multigenerational reproductive toxicity study, sprague dawley, Oral, Feed, dose end: 2 generation"}, "[12]": {"system": "rat", "details": "Subchronic oral toxicity in rodents, sprague dawley, Feed, dose end: 13 week, group: systemic, systemic / clinical chemistry / aspartate aminotransferase (ast/sgot) / aspartate aminotransferase (ast/sgot) + systemic / clinical …"}, "[13]": {"system": "rat", "details": "Combined chronic toxicity/carcinogenicity, sprague dawley, Oral, Feed, dose end: 2 year, group: systemic", "remark": "listed apart in the source"}, "[14]": {"system": "mouse", "details": "Combined chronic toxicity/carcinogenicity, cd1, Oral, Feed, dose end: 18 month, group: systemic"}, "[15]": {"details": "systemic / in life observation / body weight / body weight gain + systemic / organ weight / brain / relative to body weight + systemic / …"}, "[16]": {"details": "systemic / organ weight / liver / relative to body weight + systemic / clinical chemistry / beta globulin / beta globulin + systemic / …"}, "[17]": {"details": "group: developmental, developmental / developmental malformation / bone / full supernumerary"}, "[18]": {"details": "group: maternal, systemic / in life observation / body weight / body weight gain + systemic / in life observation / water consumption / water consumption"}, "[19]": {"details": "group: maternal, systemic / in life observation / body weight / body weight gain + systemic / in life observation / water consumption / water consumption + …"}, "[20]": {"details": "systemic / pathology microscopic / stomach / dysplasia"}, "[21]": {"details": "systemic / in life observation / clinical signs / defecation (diarrhea) + systemic / in life observation / clinical signs / vomitting + …"}, "[22]": {"details": "systemic / clinical chemistry / creatine phosphokinase / creatine phosphokinase + systemic / organ weight / liver / absolute + systemic / …"}, "[23]": {"details": "systemic / in life observation / body weight / body weight"}, "[24]": {"details": "systemic / pathology microscopic / kidney / vacuolization"}, "[25]": {"details": "systemic / pathology microscopic / kidney / vacuolization + systemic / in life observation / body weight / body weight + systemic / …"}, "[26]": {"details": "systemic / organ weight / liver / relative to body weight + systemic / organ weight / thyroid gland / absolute + systemic / pathology gross…"}, "[27]": {"details": "group: offspring, systemic / in life observation / body weight / offspring (pup) weight"}, "[28]": {"details": "group: parental, systemic / in life observation / body weight / body weight gain + systemic / in life observation / food consumption / food consumption + …"}, "[29]": {"details": "group: reproductive, reproductive / offspring survival early / litter size / litter size"}, "[30]": {"details": "systemic / organ weight / liver / relative to body weight"}, "[31]": {"details": "systemic / organ weight / liver / relative to body weight + systemic / clinical chemistry / cholesterol / cholesterol"}, "[32]": {"details": "systemic / in life observation / clinical signs / amyloidosis + systemic / organ weight / brain / relative to brain weight + systemic / …"}, "[33]": {"details": "systemic / organ weight / liver / relative to brain weight + systemic / organ weight / gallbladder / relative to brain weight"}}, "data": [{"compound": "CCc1nn(C)c(C(=O)NCc2ccc(C(C)(C)C)cc2)c1Cl", "note": "[Tebufenpyrad]", "values": [{"measurement": "LOAEL", "setting": "[1]; [15]", "value": 29, "unit": "mg/kg/day"}, {"measurement": "NOAEL", "setting": "[1]; [15]", "value": 6.8, "unit": "mg/kg/day"}, {"measurement": "LEL", "setting": "[1]; [16]", "value": 0.7, "unit": "mg/kg/day"}, {"measurement": "NEL", "setting": "[1]; [16]", "value": "< 0.7", "unit": "mg/kg/day"}, {"measurement": "LEL", "setting": "[2]; [17]", "value": 90, "unit": "mg/kg/day"}, {"measurement": "LOAEL", "setting": "[2]; [17]", "value": 90, "unit": "mg/kg/day"}, {"measurement": "NEL", "setting": "[2]; [17]", "value": 50, "unit": "mg/kg/day"}, {"measurement": "NOAEL", "setting": "[2]; [17]", "value": 50, "unit": "mg/kg/day"}, {"measurement": "LEL", "setting": "[2]; [18]", "value": 50, "unit": "mg/kg/day"}, {"measurement": "LOAEL", "setting": "[2]; [18]", "value": 50, "unit": "mg/kg/day"}, {"measurement": "NEL", "setting": "[2]; [19]", "value": 15, "unit": "mg/kg/day"}, {"measurement": "NOAEL", "setting": "[2]; [19]", "value": 15, "unit": "mg/kg/day"}, {"measurement": "LOAEL", "setting": "[3]; systemic / in life observation / body weight / body weight gain", "value": 64.4, "unit": "mg/kg/day"}, {"measurement": "NOAEL", "setting": "[3]; systemic / in life observation / body weight / body weight gain + systemic / in life observation / body weight / body weight + systemic / …", "value": 3.6, "unit": "mg/kg/day"}, {"measurement": "LEL", "setting": "[3]; [20]", "value": 4.2, "unit": "mg/kg/day"}, {"measurement": "NEL", "setting": "[3]; [20]", "value": "< 4.2", "unit": "mg/kg/day"}, {"measurement": "LOAEL", "setting": "[4]; systemic / in life observation / clinical signs / defecation (diarrhea) + systemic / in life observation / clinical signs / vomitting", "value": 10, "unit": "mg/kg/day"}, {"measurement": "LEL", "setting": "[4]; [21]", "value": 10, "unit": "mg/kg/day"}, {"measurement": "NEL", "setting": "[4]; [21]", "value": 2, "unit": "mg/kg/day"}, {"measurement": "NOAEL", "setting": "[4]; [21]", "value": 2, "unit": "mg/kg/day"}, {"measurement": "LEL", "setting": "[5]", "value": 6, "unit": "mg/kg/day"}, {"measurement": "LOAEL", "setting": "[5]", "value": 6, "unit": "mg/kg/day"}, {"measurement": "NEL", "setting": "[5]", "value": 1, "unit": "mg/kg/day"}, {"measurement": "NOAEL", "setting": "[5]", "value": 1, "unit": "mg/kg/day"}, {"measurement": "LEL", "setting": "[6]; [22]", "value": 0.21, "unit": "mg/kg/day"}, {"measurement": "NEL", "setting": "[6]; [22]", "value": "< 0.21", "unit": "mg/kg/day"}, {"measurement": "NOAEL", "setting": "[6]; [22]", "value": 0.82, "unit": "mg/kg/day"}, {"measurement": "LOAEL", "setting": "[6]; systemic / organ weight / liver / absolute + systemic / organ weight / liver / relative to body weight + systemic / clinical chemistry / …", "value": 6.52, "unit": "mg/kg/day"}]}, {"compound": "O=C(O)c1cccc(Cl)n1", "note": "[6-Chloro-2-picolinic acid]", "values": [{"measurement": "LEL", "setting": "[7]; [23]", "value": 400, "unit": "mg/kg/day"}, {"measurement": "NEL", "setting": "[7]; [23]", "value": 150, "unit": "mg/kg/day"}, {"measurement": "LOAEL", "setting": "[7]; [24]", "value": 900, "unit": "mg/kg/day"}, {"measurement": "NOAEL", "setting": "[7]; [25]", "value": 700, "unit": "mg/kg/day"}, {"measurement": "LEL", "setting": "[8]", "value": 800, "unit": "mg/kg/day"}, {"measurement": "LOAEL", "setting": "[8]", "value": 800, "unit": "mg/kg/day"}, {"measurement": "NEL", "setting": "[8]", "value": 400, "unit": "mg/kg/day"}, {"measurement": "NOAEL", "setting": "[8]", "value": 400, "unit": "mg/kg/day"}, {"measurement": "NOAEL", "setting": "[9]; [24]", "value": 300, "unit": "mg/kg/day"}, {"measurement": "LOAEL", "setting": "[9]; systemic / pathology microscopic / kidney / vacuolization + systemic / in life observation / body weight / body weight", "value": 900, "unit": "mg/kg/day"}, {"measurement": "LEL", "setting": "[9]; [25]", "value": 900, "unit": "mg/kg/day"}, {"measurement": "NEL", "setting": "[9]; systemic / pathology microscopic / liver / carcinoma + systemic / organ weight / liver / absolute + systemic / organ weight / liver / …", "value": 300, "unit": "mg/kg/day"}]}, {"compound": "CCC(CC)Nc1c([N+](=O)[O-])cc(C)c(C)c1[N+](=O)[O-]", "note": "[Pendimethalin]", "values": [{"measurement": "LEL", "setting": "[10]; systemic / in life observation / body weight / body weight gain + systemic / pathology gross / liver / accentuated lobular pattern", "value": 25, "unit": "mg/kg/day"}, {"measurement": "LOAEL", "setting": "[10]; [26]", "value": "> 250", "unit": "mg/kg/day"}, {"measurement": "NOAEL", "setting": "[10]; [26]", "value": "≥ 250", "unit": "mg/kg/day"}, {"measurement": "NEL", "setting": "[10]; systemic / pathology microscopic / thyroid gland / adenoma + systemic / clinical chemistry / albumin / albumin + systemic / clinical …", "value": 5, "unit": "mg/kg/day"}, {"measurement": "LEL", "setting": "[11]; [27]", "value": 215, "unit": "mg/kg/day"}, {"measurement": "LOAEL", "setting": "[11]; [27]", "value": 215, "unit": "mg/kg/day"}, {"measurement": "NEL", "setting": "[11]; [27]", "value": 42, "unit": "mg/kg/day"}, {"measurement": "NOAEL", "setting": "[11]; [27]", "value": 42, "unit": "mg/kg/day"}, {"measurement": "LEL", "setting": "[11]; [28]", "value": 173, "unit": "mg/kg/day"}, {"measurement": "LOAEL", "setting": "[11]; [28]", "value": 173, "unit": "mg/kg/day"}, {"measurement": "NEL", "setting": "[11]; [28]", "value": 36, "unit": "mg/kg/day"}, {"measurement": "NOAEL", "setting": "[11]; [28]", "value": 36, "unit": "mg/kg/day"}, {"measurement": "LEL", "setting": "[11]; [29]", "value": 215, "unit": "mg/kg/day"}, {"measurement": "LOAEL", "setting": "[11]; [29]", "value": 215, "unit": "mg/kg/day"}, {"measurement": "NEL", "setting": "[11]; [29]", "value": 42, "unit": "mg/kg/day"}, {"measurement": "NOAEL", "setting": "[11]; [29]", "value": 42, "unit": "mg/kg/day"}, {"measurement": "LEL", "setting": "[12]", "value": 7.6, "unit": "mg/kg/day"}, {"measurement": "LOAEL", "setting": "[12]", "value": 382, "unit": "mg/kg/day"}, {"measurement": "NEL", "setting": "[12]", "value": "< 7.6", "unit": "mg/kg/day"}, {"measurement": "NOAEL", "setting": "[12]", "value": 39.2, "unit": "mg/kg/day"}, {"measurement": "LOAEL", "setting": "[13]; [30]", "value": 51, "unit": "mg/kg/day"}, {"measurement": "NOAEL", "setting": "[13]; [30]", "value": "< 51", "unit": "mg/kg/day"}, {"measurement": "LEL", "setting": "[13]; [31]", "value": 51, "unit": "mg/kg/day"}, {"measurement": "NEL", "setting": "[13]; [31]", "value": "< 51", "unit": "mg/kg/day"}, {"measurement": "LOAEL", "setting": "[14]; [32]", "value": 622, "unit": "mg/kg/day"}, {"measurement": "NOAEL", "setting": "[14]; [32]", "value": 62.3, "unit": "mg/kg/day"}, {"measurement": "LEL", "setting": "[14]; [33]", "value": 12.3, "unit": "mg/kg/day"}, {"measurement": "NEL", "setting": "[14]; [33]", "value": "< 12.3", "unit": "mg/kg/day"}]}]}
